Experimental data: PubChem BioAssay AID192 (DTP/NCI, 2004)
Where “and” joins values, the source holds several entries; their conditions need not be identical. Equal entries are not always repeated. Toxic doses and inconclusive results are not listed. Rule for the calls: active = survival T/C of 150% or more; inactive = T/C below 125% in these data.

System: BDF1 mice, B16 melanoma ip, median survival T/C
Test: NCI In Vivo Anticancer Drug Screen. Data for tumor model B16 Melanoma (intraperitoneal) in B6D2F1 (BDF1) mice
Conditions: endpoint: median survival time, higher = longer survival
Procedure, shortened: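 Transplantable tumor model; survival or tumor size measured; reported as T/C, treated over vehicle control.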

[1] = dose: 12.5 mg/kg/injection, schedule: Q01DX009 (ip), vehicle: saline
[2] = dose: 25.0 mg/kg/injection, schedule: Q01DX009 (ip), vehicle: saline
[3] = dose: 50.0 mg/kg/injection, schedule: Q01DX009 (ip), vehicle: saline
[4] = dose: 50.0 mg/kg/injection, schedule: Q01DX009 (ip), vehicle: Klucel (hydroxypropylcellulose) (HPC)
[5] = dose: 100.0 mg/kg/injection, schedule: Q01DX009 (ip), vehicle: Klucel (hydroxypropylcellulose) (HPC)
[6] = dose: 200.0 mg/kg/injection, schedule: Q01DX009 (ip), vehicle: Klucel (hydroxypropylcellulose) (HPC)
[7] = dose: 80.0 mg/kg/injection, schedule: Q01DX009 (ip), vehicle: saline
[8] = dose: 6.25 mg/kg/injection, schedule: Q01DX009 (ip), vehicle: saline with Tween-80

Measured: T/C

OCCN1CCN(CCCN2c3ccccc3C=Cc3ccccc32)CC1
inactive: dose: 3.12 mg/kg/injection, schedule: Q01DX009 (ip), vehicle: saline 97 % of control | dose: 3.12 mg/kg/injection, schedule: Q04DX003 (ip), vehicle: saline 105 % of control | dose: 6.25 mg/kg/injection, schedule: Q01DX009 (ip), vehicle: saline 110 % of control | [1] 100 % of control | dose: 12.5 mg/kg/injection, schedule: Q04DX003 (ip), vehicle: saline 107 % of control | [2] 95 % of control | dose: 25.0 mg/kg/injection, schedule: Q04DX003 (ip), vehicle: saline 122 % of control | [3] 95 % of control | dose: 50.0 mg/kg/injection, schedule: Q04DX003 (ip), vehicle: saline 115 % of control

CCN1C=C/C(=C\C=C/c2cc[n+](CC)c3ccccc23)c2ccccc21
inactive: dose: 6.0 micrograms/kg/injection, schedule: Q01DX009 (ip), vehicle: saline 106 % of control | dose: 12.0 micrograms/kg/injection, schedule: Q01DX009 (ip), vehicle: saline 110 % of control | dose: 25.0 micrograms/kg/injection, schedule: Q01DX009 (ip), vehicle: saline 115 % of control | dose: 50.0 micrograms/kg/injection, schedule: Q01DX009 (ip), vehicle: saline 106 % of control

OCc1cc(Cl)ccc1O
inactive: [4] 103 % of control | [5] 96 % of control | [6] 86 % of control

NC(N)=N/N=C(/c1ccccc1)c1ccc(F)cc1
inactive: dose: 20.0 mg/kg/injection, schedule: Q01DX009 (ip), vehicle: saline 110 % of control | dose: 40.0 mg/kg/injection, schedule: Q01DX009 (ip), vehicle: saline 115 % of control | [7] 102 % of control

Cc1ccc(NC(=O)c2ccc(Cl)cc2Cl)cc1Cl
inactive: dose: 100.0 mg/kg/injection, schedule: Q04DX003 (ip), vehicle: Klucel (hydroxypropylcellulose) (HPC) 102 % of control | dose: 200.0 mg/kg/injection, schedule: Q04DX003 (ip), vehicle: Klucel (hydroxypropylcellulose) (HPC) 92 % of control | dose: 400.0 mg/kg/injection, schedule: Q04DX003 (ip), vehicle: Klucel (hydroxypropylcellulose) (HPC) 95 % of control

ClCc1cccc2c(CCl)cccc12
inactive: [8] 98 % of control | dose: 12.5 mg/kg/injection, schedule: Q01DX009 (ip), vehicle: saline with Tween-80 98 % of control | dose: 25.0 mg/kg/injection, schedule: Q01DX009 (ip), vehicle: saline with Tween-80 102 % of control | dose: 25.0 mg/kg/injection, schedule: Q01DX009 (ip), vehicle: suspension in saline 100 % of control | dose: 50.0 mg/kg/injection, schedule: Q01DX009 (ip), vehicle: suspension in saline 107 % of control | dose: 100.0 mg/kg/injection, schedule: Q01DX009 (ip), vehicle: suspension in saline 90 % of control

Cc1ccc(Cl)cc1NC(=O)Nc1ccccc1Cl
inactive: dose: 0.78 mg/kg/injection, schedule: Q01DX009 (ip), vehicle: saline with Tween-80 88 % of control | dose: 1.56 mg/kg/injection, schedule: Q01DX009 (ip), vehicle: saline with Tween-80 90 % of control | dose: 3.13 mg/kg/injection, schedule: Q01DX009 (ip), vehicle: saline with Tween-80 93 % of control | [8] 90 % of control | dose: 25.0 mg/kg/injection, schedule: Q01DX009 (ip), vehicle: Klucel (hydroxypropylcellulose) (HPC) 89 % of control

CCC1CN2CCC3(C(=O)Nc4ccccc43)C2CC1/C(=C/OC)C(=O)OC (stereo not given)
inactive: dose: 50.0 mg/kg/injection, schedule: Q01DX009 (ip), vehicle: saline with Tween-80 95 % of control

COC(=O)C(N)CCCCNc1ccc2c(cc1=O)C(NC(C)=O)CCc1cc(OC)c(OC)c(OC)c1-2 (stereo not given)
inactive: dose: 35.0 mg/kg/injection, schedule: Q01DX009 (ip), vehicle: saline 103 % of control | dose: 53.0 mg/kg/injection, schedule: Q01DX009 (ip), vehicle: saline 106 % of control | [7] 93 % of control | dose: 120.0 mg/kg/injection, schedule: Q01DX009 (ip), vehicle: saline 88 % of control | dose: 180.0 mg/kg/injection, schedule: Q01DX009 (ip), vehicle: saline 92 % of control

C[C@]12CC[C@H]3[C@@H](CCC4=CC(=O)CC[C@@]43C)[C@@H]1CC[C@@H]2OC(=O)Cc1ccc(N(CCCl)CCCl)cc1
inactive: dose: 64.0 mg/kg/injection, schedule: Q02DX009 (ip), vehicle: Klucel (hydroxypropylcellulose) (HPC) 100 % of control and 111 % of control | dose: 128.0 mg/kg/injection, schedule: Q02DX009 (ip), vehicle: Klucel (hydroxypropylcellulose) (HPC) 95 % of control and 115 % of control | dose: 256.0 mg/kg/injection, schedule: Q02DX009 (ip), vehicle: Klucel (hydroxypropylcellulose) (HPC) 122 % of control

CCN(CC)C(=S)SC(=S)N(CC)CC
inactive: dose: 100.0 mg/kg/injection, schedule: Q01DX009 (ip), vehicle: saline with Tween-80 96 % of control | dose: 200.0 mg/kg/injection, schedule: Q01DX009 (ip), vehicle: saline with Tween-80 103 % of control | dose: 400.0 mg/kg/injection, schedule: Q01DX009 (ip), vehicle: saline with Tween-80 93 % of control

CC12CCC(O)CC1CCC1C2CCC2(C)C(c3ccc(=O)oc3)C(O)C3OC132 (stereo not given)
inactive: dose: 0.94 mg/kg/injection, schedule: Q01DX009 (ip), vehicle: Klucel (hydroxypropylcellulose) (HPC) 103 % of control | dose: 1.87 mg/kg/injection, schedule: Q01DX009 (ip), vehicle: Klucel (hydroxypropylcellulose) (HPC) 98 % of control | dose: 3.5 mg/kg/injection, schedule: Q01DX009 (ip), vehicle: Klucel (hydroxypropylcellulose) (HPC) 94 % of control

N=c1ccn2c(n1)OC1C(O)C(CO)OC12 (stereo not given)
inactive: [1] 98 % of control | [2] 96 % of control and 109 % of control | [3] 102 % of control and 108 % of control and 117 % of control | dose: 100.0 mg/kg/injection, schedule: Q01DX009 (ip), vehicle: saline sonified 104 % of control | dose: 100.0 mg/kg/injection, schedule: Q01DX009 (ip), vehicle: saline 120 % of control and 105 % of control | dose: 200.0 mg/kg/injection, schedule: Q01DX009 (ip), vehicle: saline sonified 104 % of control | dose: 200.0 mg/kg/injection, schedule: Q01DX009 (ip), vehicle: saline 114 % of control and 124 % of control | dose: 400.0 mg/kg/injection, schedule: Q01DX009 (ip), vehicle: saline sonified 110 % of control

C=C1COC(O)(C2OCOC(C3CC(=O)NC(=O)C3)C2O)C1C (stereo not given)
inactive: dose: 2.0 micrograms/kg/injection, schedule: Q01DX009 (ip), vehicle: water 104 % of control | dose: 4.0 micrograms/kg/injection, schedule: Q01DX009 (ip), vehicle: water 104 % of control | dose: 8.0 micrograms/kg/injection, schedule: Q01DX009 (ip), vehicle: water 100 % of control | dose: 16.0 micrograms/kg/injection, schedule: Q01DX009 (ip), vehicle: water 108 % of control | dose: 32.0 micrograms/kg/injection, schedule: Q01DX009 (ip), vehicle: water 103 % of control

CC1=C/C(=N\NS(=O)(=O)c2ccc([N+](=O)[O-])cc2)CC(C)(C)C1
inactive: [4] 94 % of control | [5] 93 % of control | [6] 96 % of control | dose: 400.0 mg/kg/injection, schedule: Q01DX009 (ip), vehicle: Klucel (hydroxypropylcellulose) (HPC) 88 % of control
